15 compounds from US10550105B2 (Ribon Therapeutics Inc., priority 2018, dated 2020) can be followed below.

Assay [1] concerns NCI-H1373 lung cancer cells. Put plainly: Inhibition of cancer cell growth in NCI-H1373 lung cancer cells (FIG. 2). It counts as cell-based, human.
Assay [2] has as its target T1, PARP7 (Homo sapiens (Human), UniProt Q7Z3E1). Put plainly: Enzymatic assay for inhibition of PARP7: TR-FRET displacement of biotinylated Probe A from the TIPARP active site. It counts as binding. The note with it: Table A-1. The method, boiled down:
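Titrated compounds compete with the biotinylated probe; after an additional 30 min incubation at 25° C, time-delayed fluorescence (90 μs) is measured. Inhibition curves use a Hill coefficient that normally floats but may be held at 1.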
In general terms: TR-FRET usually uses a lanthanide donor and a delayed reading to cut background.

The subject of the next assay is CT26 tumors. Put plainly: Inhibition of tumor growth, murine syngeneic model CT26 (subcutaneous dosing). It counts as in vivo. As to conditions: CT26 in BALB/c mice, vs vehicle (FIG. 6). The method, then: For the CT26 study BALB/c mice were inoculated subcutaneously at the right flank with CT26 cells for tumor development. Four days after tumor inoculation, 36 mice with tumor size ranging from 40-55 mm^3 (average tumor size 47 mm^3) were selected and assigned into 3 groups using stratified randomization with 12 mice in each group based upon their tumor volumes. The treatments were started from the next day post randomization (defined randomization day as day 0) and were treated with vehicle (0.5% methylcellulose+0.2% Tween 80), Compound 98 (500 mg/kg S.C. QD*21 days), Compound 93A (100 mg/kg S.C. BID*21 days) respectively. The tumor sizes were measured three times per week during the treatment. The entire study was terminated on day 21. Mean tumor volume and SEM for both studies are plotted. Statistical significance, calculated using two-tailed unpaired t-tests in which each treatment group was compared to vehicle control, is indicated by an asterisk. Statistics were performed on groups with less than 20% animal loss (D21 for CT26, D17 for 4T1).

The subject of another assay is 4T1-luc2-1A4 tumors. Put plainly: Inhibition of tumor growth, murine syngeneic model 4T1 (orthotopic, mammary fat pad). It counts as in vivo. The note with it: 4T1 orthotopic in female BALB/c mice, vs vehicle (FIG. 6). An excerpt:
Example G: Inhibition of Tumor Growth by Treatment with PARP7 Inhibitors For the 4T1 study female BALB/c mice were inoculated orthotopically in the mammary fat pad with 4T1-1uc2-1A4 cells for tumor development. Eight days after tumor inoculation, 45 mice with tumor size ranging from 63-88 mm^3 (average tumor size 67 mm^3) were selected and assigned into 3 groups using stratified randomization with 15 mice in each group based upon their tumor volumes. The treatments were started from the next day post randomization (defined randomization day as D0) and were treated with vehicle (0.5% methylcellulose +0.2% Tween 80), Compound 98 (500 mg/kg S.C. QD*21 days), Compound 93A (100 mg/kg S.C. BID*21 days) respectively. The tumor sizes were measured three times per week during the treatment. The entire study was terminated on D20. Mean tumor volume and SEM for both studies are plotted. Statistical significance, calculated using two-tailed unpaired t-tests in which each treatment group was compared to vehicle control, is indicated by an asterisk. Statistics were performed on groups with less than 20% animal loss (D21 for CT26, D17 for 4T1).

In assay [3] the test system is interferon-beta (IFN-β). Kind of assay: Induction of interferon-beta levels in CT26 cells in the presence of STING agonist DMXAA (FIG. 3). It counts as cell-based. As to conditions: CT26 mouse colon cancer cells.
Assay [4] concerns interferon-beta (IFN-β). Kind of assay: Induction of interferon-beta levels in RAW264.7 macrophages in the presence of STING agonist DMXAA (FIG. 3). Type of assay: cell-based. As to conditions: RAW264.7 mouse macrophages.
Assay [5] deals with T1, PARP7. Put plainly: Inhibition of PARP7 (Table A-1). It counts as biochemical. The note with it: comparison of separated isomers, see Table A-1.

T1 sequence (Q7Z3E1 whole entry): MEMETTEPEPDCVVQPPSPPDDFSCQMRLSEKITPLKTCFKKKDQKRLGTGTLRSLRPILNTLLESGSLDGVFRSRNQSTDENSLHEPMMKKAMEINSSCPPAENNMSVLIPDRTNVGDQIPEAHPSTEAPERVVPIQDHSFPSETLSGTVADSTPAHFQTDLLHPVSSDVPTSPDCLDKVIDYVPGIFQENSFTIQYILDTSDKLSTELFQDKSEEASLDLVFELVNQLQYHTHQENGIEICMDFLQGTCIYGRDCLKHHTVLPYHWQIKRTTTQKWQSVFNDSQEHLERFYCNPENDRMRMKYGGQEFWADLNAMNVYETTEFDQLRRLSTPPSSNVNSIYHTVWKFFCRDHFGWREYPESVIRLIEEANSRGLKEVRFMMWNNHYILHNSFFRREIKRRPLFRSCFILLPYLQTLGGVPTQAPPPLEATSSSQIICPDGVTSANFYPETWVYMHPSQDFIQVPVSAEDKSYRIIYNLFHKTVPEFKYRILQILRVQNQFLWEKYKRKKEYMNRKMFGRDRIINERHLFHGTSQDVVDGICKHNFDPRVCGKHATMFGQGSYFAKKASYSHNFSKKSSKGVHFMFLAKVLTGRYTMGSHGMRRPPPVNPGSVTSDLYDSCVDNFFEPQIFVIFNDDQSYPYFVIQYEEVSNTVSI

As for `N#Cc1ccc(N2CCN(C(=O)CCOC[C@@H]3c4ccccc4CN3c3cn[nH]c(=O)c3C(F)(F)F)CC2)nc1` (single isomer, unassigned) [Example 93 Isomer A], the “growth of NCI-H1373 lung cancer cells” value in assay [1] is listed as “dose-dependent decrease in growth”. Moreover, the IC50 (as a rule, the concentration needed to halve the response being measured) on PARP7 [2] is less than 100 nM. Also, the tumor growth result with CT26 tumors (100 mg/kg S.C. BID*21 days) and with 4T1-luc2-1A4 tumors (100 mg/kg S.C. BID*21 days) was “significantly reduce tumor growth” throughout.

Regarding `N#Cc1ccc(N2CCN(C(=O)c3cccc(OCCOc4cccc5c4CN(c4cn[nH]c(=O)c4C(F)(F)F)C5)c3)CC2)nc1` [Example 39, 6-[4-([3-[2-([2-[6-Oxo-5-(trifluoromethyl)-1,6-dihydropyridazin-4-yl]-2,3-dihydro-1H-isoindol-4-yl]oxy)ethoxy]phenyl]carbonyl)piperazin-1-yl]pyridine-3-carbonitrile], in assay [1], the “growth of NCI-H1373 lung cancer cells” value is on record as “dose-dependent decrease in growth”. The IC50 at PARP7 [2] was less than 100 nM. Regarding `N#Cc1ccc(N2CCN(C(=O)CCOC[C@@H]3CCCN3c3cn[nH]c(=O)c3C(F)(F)F)CC2)nc1` [Example 98, 6-[4-(3-[[(2S)-1-[6-Oxo-5-(trifluoromethyl)-1,6-dihydropyridazin-4-yl]pyrrolidin-2-yl]methoxy]propanoyl)piperazin-1-yl]pyridine-3-carbonitrile], the “growth of NCI-H1373 lung cancer cells” value in assay [1] is listed as “dose-dependent decrease in growth”. Also, the “interferon-beta (IFN-β) levels” value in the assay on interferon-beta (IFN-β) [3] and with interferon-beta (IFN-β) [4] was “induction” throughout. Further, the IC50 at PARP7 [2] was less than 100 nM. Also, the tumor growth result with CT26 tumors (500 mg/kg S.C. QD*21 days) and in the assay on 4T1-luc2-1A4 tumors (500 mg/kg S.C. QD*21 days) was “significantly reduce tumor growth” each time. Turning to `N#Cc1ccc(N2CCN(C(=O)C[C@H]3CC[C@@H]([C@@H]4CCCN4c4cn[nH]c(=O)c4C(F)(F)F)O3)CC2)nc1` [Example 141B, 6-(4-[2-[(2R,5S)-5-[(2S)-1-[6-oxo-5-(trifluoromethyl)-1,6-dihydropyridazin-4-yl]pyrrolidin-2-yl]oxolan-2-yl]acetyl]piperazin-1-yl)pyridine-3-carbonitrile], on PARP7 [5], the “relative potency of the enantiomers / diastereomers” value is reported as “more potent enantiomer”. The IC50 at PARP7 [2] was less than 100 nM. For `C[C@@H](COCCC(=O)N1CCN(c2ncc(Cl)s2)CC1)Oc1cn[nH]c(=O)c1C(F)(F)F` [Example 723, (S)-5-((1-(3-(4-(5-Chlorothiazol-2-yl)piperazin-1-yl)-3-oxopropoxy)propan-2-yl)oxy)-4-(trifluoromethyl)pyridazin-3(2H)-one], the IC50 at PARP7 [2] is less than 100 nM. For `O=c1[nH]ncc(OCCOCCS(=O)(=O)N2CCN(c3ncc(C(F)(F)F)cn3)CC2)c1C(F)(F)F` [Example 724, 4-(Trifluoromethyl)-5-(2-(2-((4-(5-(trifluoromethyl)pyrimidin-2-yl)piperazin-1-yl)sulfonyl)ethoxy)ethoxy)pyridazin-3(2H)-one], on PARP7 [2], the IC50 is less than 100 nM. Same read-out and setting: the same measure for `C[C@@H](COCCS(=O)(=O)N1CCN(c2ncc(C(C)(C)C)cn2)CC1)Nc1cn[nH]c(=O)c1C(F)(F)F` [Example 725, (S)-5-((1-(2-((4-(5-(Tert-butyl)pyrimidin-2-yl)piperazin-1-yl)sulfonyl)ethoxy)propan-2-yl)amino)-4-(trifluoromethyl)pyridazin-3(2H)-one]: less than 100 nM; for `C[C@@H](COCCS(=O)(=O)N1CCN(c2ncc(C(F)(F)F)s2)CC1)Nc1cn[nH]c(=O)c1C(F)(F)F` [Example 726, (S)-4-(Trifluoromethyl)-5-((1-(2-((4-(5-(trifluoromethyl)thiazol-2-yl)piperazin-1-yl)sulfonyl)ethoxy)propan-2-yl)amino)pyridazin-3(2H)-one]: less than 100 nM; for `CC[C@@H](COCCC(=O)N1CCN(c2ncc(Cl)cn2)CC1)Oc1cn[nH]c(=O)c1Br` [Example 727, (S)-4-Bromo-5-((1-(3-(4-(5-chloropyrimidin-2-yl)piperazin-1-yl)-3-oxopropoxy)butan-2-yl)oxy)pyridazin-3(2H)-one]: less than 100 nM. Turning to `C[C@@H](COCCS(=O)(=O)N1CCN(c2ncc(C(F)(F)F)cn2)CC1)Oc1cn[nH]c(=O)c1C(F)(F)F` [Example 728, (S)-4-(Trifluoromethyl)-5-((1-(2-((4-(5-(trifluoromethyl)pyrimidin-2-yl)piperazin-1-yl)sulfonyl)ethoxy)propan-2-yl)oxy)pyridazin-3(2H)-one], the IC50 at PARP7 [2] is less than 100 nM. Regarding `C[C@@H](COCCC(=O)N1CCN(c2ncc(C(F)(F)F)s2)CC1)Oc1cn[nH]c(=O)c1Cl` [Example 729, (S)-4-Chloro-5-((1-(3-oxo-3-(4-(5-(trifluoromethyl)thiazol-2-yl)piperazin-1-yl)propoxy)propan-2-yl)oxy)pyridazin-3(2H)-one], the IC50 at PARP7 [2] lay within 100 to 1000 nM. `C[C@@H](COCCC(=O)N1CCN(c2ncc(C(F)(F)F)s2)CC1)Oc1cn[nH]c(=O)c1Br` [Example 730, (S)-4-Bromo-5-((1-(3-oxo-3-(4-(5-(trifluoromethyl)thiazol-2-yl)piperazin-1-yl)propoxy)propan-2-yl)oxy)pyridazin-3(2H)-one] yielded an IC50 on PARP7 [2] of 100 to 1000 nM. Compound `C[C@@H](COCCS(=O)(=O)N1CCN(c2ncc(C(F)(F)F)s2)CC1)Nc1cn[nH]c(=O)c1Cl` [Example 731, (S)-4-Chloro-5-((1-(2-((4-(5-(trifluoromethyl)thiazol-2-yl)piperazin-1-yl)sulfonyl)ethoxy)propan-2-yl)amino)pyridazin-3(2H)-one] returned an IC50 on PARP7 [2] of less than 100 nM.

Turning to `C[C@@H](COCCS(=O)(=O)N1CCN(c2ncc(C(F)(F)F)s2)CC1)Nc1cn[nH]c(=O)c1Br` [Example 732, (S)-4-Bromo-5-((1-(2-((4-(5-(trifluoromethyl)thiazol-2-yl)piperazin-1-yl)sulfonyl)ethoxy)propan-2-yl)amino)pyridazin-3(2H)-one], at PARP7 [2], the IC50 was less than 100 nM. `Cc1cnc(N2CCN(C(=O)CCOC[C@H](C)Nc3cn[nH]c(=O)c3C(F)(F)F)CC2)s1` [Example 733, (S)-5-((1-(3-(4-(5-Methylthiazol-2-yl)piperazin-1-yl)-3-oxopropoxy)propan-2-yl)amino)-4-(trifluoromethyl)pyridazin-3(2H)-one]: on PARP7 [2], the concentration for half-maximal inhibition (IC50) was less than 100 nM.
